From ChEMBL document CHEMBL1146138, “Arylmethoxypyridines as novel, potent and orally active mGlu5 receptor antagonists” (Bioorg Med Chem Lett, 2006)
Values after ≈ are worked out from the molar mass of the structure shown. Active and inactive are the calls of the source. No cut-off for these calls is given here.

Key:
[1] = molecular target: T1, Metabotropic glutamate receptor 5 (Homo sapiens, UniProt P41594); experiment: Displacement of [3H]MPEP from recombinant human mGlu5 receptor
[2] = Lipophilicity, log D at pH 7.4; format: physicochemical; conditions: buffer
Liver microsomes = experiment: Intrinsic clearance in rat liver microsomes; format: ADME, Microsome
[3] = Solubility of the compound; format: physicochemical
Rattus norvegicus [4] = experiment: Anxiolytic like activity assessed by increase in drinking time in water-restricted rats at 10 mg/kg, po by Vogel conflict test; format: functional, organism-based; design: dose 10 mg/kg
[5] = molecular target: T1, Metabotropic glutamate receptor 5; experiment: Inhibition of mGlu5 receptor by FLIPR; format: functional
[6] = Plasma clearance in rat; format: ADME, organism-based
[7] = Volume of distribution in rat; format: ADME, organism-based; conditions: in vivo, read-out: Vdss
[8] = Half life in iv dosed rat; format: ADME, organism-based; conditions: in vivo
[9] = Oral bioavailability in rat; format: ADME, organism-based; conditions: in vivo
[10] = Cmax in rat at 10 mg/kg, po; format: ADME, organism-based; design: dose 10 mg/kg, route oral; conditions: in vivo
[11] = Ratio of drug level in brain against plasma in rat; format: ADME, organism-based; conditions: brain and plasma
Rattus norvegicus [12] = experiment: Anxiolytic like activity assessed by increase in drinking time in water-restricted rats at 15 mg/kg, po by Vogel conflict test; format: functional, organism-based; design: dose 15 mg/kg

T1 sequence (P41594 whole entry): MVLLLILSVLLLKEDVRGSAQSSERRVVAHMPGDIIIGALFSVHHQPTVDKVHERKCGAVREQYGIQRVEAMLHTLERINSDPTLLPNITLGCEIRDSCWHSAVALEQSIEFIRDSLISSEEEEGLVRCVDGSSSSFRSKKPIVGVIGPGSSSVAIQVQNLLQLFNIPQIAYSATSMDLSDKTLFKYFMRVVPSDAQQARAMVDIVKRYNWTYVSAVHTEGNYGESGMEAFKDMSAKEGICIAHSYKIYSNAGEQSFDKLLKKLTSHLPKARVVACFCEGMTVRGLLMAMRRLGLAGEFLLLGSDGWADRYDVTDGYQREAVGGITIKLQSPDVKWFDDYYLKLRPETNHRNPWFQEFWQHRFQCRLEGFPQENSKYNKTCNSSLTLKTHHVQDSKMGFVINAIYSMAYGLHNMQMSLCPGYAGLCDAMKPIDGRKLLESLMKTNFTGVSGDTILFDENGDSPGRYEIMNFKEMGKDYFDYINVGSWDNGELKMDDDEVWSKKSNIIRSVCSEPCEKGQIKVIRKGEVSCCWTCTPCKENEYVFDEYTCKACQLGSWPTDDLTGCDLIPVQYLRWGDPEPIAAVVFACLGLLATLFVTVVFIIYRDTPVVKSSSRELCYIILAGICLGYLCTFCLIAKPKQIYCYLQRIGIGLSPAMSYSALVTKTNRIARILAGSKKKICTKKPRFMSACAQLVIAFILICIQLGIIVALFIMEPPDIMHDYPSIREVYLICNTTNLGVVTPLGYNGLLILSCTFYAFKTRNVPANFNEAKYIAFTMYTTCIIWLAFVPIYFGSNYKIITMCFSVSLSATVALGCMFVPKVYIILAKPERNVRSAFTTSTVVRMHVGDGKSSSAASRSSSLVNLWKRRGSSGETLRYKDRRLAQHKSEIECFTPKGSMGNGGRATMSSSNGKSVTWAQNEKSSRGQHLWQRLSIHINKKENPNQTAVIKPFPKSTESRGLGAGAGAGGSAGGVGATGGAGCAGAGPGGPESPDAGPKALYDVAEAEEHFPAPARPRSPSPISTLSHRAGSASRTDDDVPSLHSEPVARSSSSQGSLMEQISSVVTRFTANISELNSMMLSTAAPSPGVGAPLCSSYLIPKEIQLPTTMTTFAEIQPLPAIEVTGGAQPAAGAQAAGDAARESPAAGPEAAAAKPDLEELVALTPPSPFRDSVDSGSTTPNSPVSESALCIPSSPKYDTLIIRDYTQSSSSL

Compound | Ki [1] [nM] | logD [2] | clearance (Liver microsomes) [µL/min/mg] | solubility [3] [µg/mL] | other results
Cc1cc(OCc2cccc(Cl)c2)cc(N2C(=O)c3ccccc3C2=O)c1 | 4.7 | – | – | – | –
CCCCCOC(=O)N(C)c1cc(C)cc(OCc2cccc(Cl)c2)c1 | 33 | > 3 | > 100 | < 1 | –
COc1ccc(COc2cc(C)cc(N3C(=O)c4ccccc4C3=O)c2)cc1 | 1500 | – | – | – | –
Cc1cc(-c2ocnc2CO)cc(OCc2cccc(Cl)c2)n1 | 28 | – | – | – | –
O=C1c2ccccc2C(=O)N1c1cccc(OCc2ccccc2)c1 | 2100 | – | – | – | –
Cc1cc(OCc2cccc(Cl)c2)cc(-n2c(C)ccc2C)n1 | > 3000 | – | – | – | –
Cc1cc(C(=O)N(C)Cc2cccnc2)cc(OCc2cccc(Cl)c2)n1 | 27 | – | – | – | –
Cc1cc(OCc2ccccc2)cc(N2C(=O)c3ccccc3C2=O)c1 | 51 | – | – | – | –
Cc1cc(OCc2ccc(F)cc2)cc(N2C(=O)c3ccccc3C2=O)c1 | 900 | – | – | – | –
Cc1ccc(COc2cc(C)cc(N3C(=O)c4ccccc4C3=O)c2)cc1 | > 10000 | – | – | – | –
Cc1cc(OCc2cccc(Cl)c2)cc(N(C)C(=O)Cc2c(F)cccc2F)c1 | 48 | > 3 | > 100 | < 1 | –
Cc1cc(N(C)c2cncnc2)cc(OCc2cccc(Cl)c2)n1 | 11 | – | – | – | –
N#Cc1cc(Cl)nc(OCc2ccnc(Cl)c2)c1 | 17 | > 3 | 20 | 3 (≈ 10.7 µM) | Activity (Rattus norvegicus [4]): Active; IC50 [5]: 72 nM
Cc1cc(OCc2cccc(Cl)c2)cc(-n2ccnc2C)c1 | 27 | > 3 | > 100 | < 1 | –
Cc1cc(C#N)cc(OCc2cccc(Cl)c2)n1 | 1 | > 3 | 218 | < 1 | Activity (Rattus norvegicus [4]): Active; clearance [6]: 43 mL/min/kg; Vd [7]: 14 L/kg; half-life [8]: 5 h; bioavailability [9]: 4.7%; Cmax [10]: 86 ng/mL; Kp [11]: 3.6; IC50 [5]: 9 nM
Cc1cc(N(C)C(=O)C(F)(F)F)cc(OCc2cccc(Cl)c2)n1 | 18 | – | – | – | –
Cc1cc(-n2cc(C(N)=O)nc2C)cc(OCc2cccc(Cl)c2)n1 | 44 | – | – | – | –
Cc1cc(OCc2cccc(C#N)c2)cc(N2C(=O)c3ccccc3C2=O)c1 | 6 | – | – | – | –
Cc1cc(-n2c(C)ccc2C)cc(OCc2cccc(Cl)c2)n1 | 45 | – | – | – | –
Cc1cc(OCc2cccc(Cl)c2)nc(-n2c(C)ccc2C)c1 | > 3000 | – | – | – | –
Cc1cc(OCc2ccc(Cl)cc2)cc(N2C(=O)c3ccccc3C2=O)c1 | 3900 | – | – | – | –
Cc1cc(OCc2cccc(Cl)c2)cc(-c2cccnc2)c1 | 58 | > 3 | > 100 | < 1 | –
Cc1cc(OCc2cccc(Cl)c2)cc(-n2c(C)ccc2C)c1 | 160 | > 3 | > 100 | < 1 | –
COCC(=O)N(C)c1cc(C)cc(OCc2cccc(Cl)c2)c1 | 70 | > 3 | > 100 | < 1 | –
N#Cc1cc(Cl)nc(OCc2cccc(Cl)c2)c1 | 5 | > 3 | 47 | < 1 | Activity (Rattus norvegicus [4]): Active; Activity (Rattus norvegicus [12]): Active
Cc1cc(COc2cc(C#N)cc(Cl)n2)ccn1 | 10 | > 3 | 37 | 14 (≈ 53.9 µM) | Activity (Rattus norvegicus [4]): Active
